Reference: PubChem BioAssay (NCI)
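96-well plates; 48 h exposure; 5 concentrations. Endpoints by linear interpolation between flanking doses. Not reached: highest tested concentration assigned. At the TGI there is no net growth.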

Tests used:
Experiment in all cases: growth of human tumour cells (NCI), 48 h
T-47D breast = tested on: T-47D breast
U251 CNS = tested on: U251 CNS
UO-31 renal = tested on: UO-31 renal
SN12C renal = tested on: SN12C renal
BT-549 breast = tested on: BT-549 breast
MOLT-4 leukemia = tested on: MOLT-4 leukemia
SF-268 CNS = tested on: SF-268 CNS
TK-10 renal = tested on: TK-10 renal
MDA-MB-231 breast = tested on: MDA-MB-231 breast
OVCAR-5 ovarian = tested on: OVCAR-5 ovarian
RXF 393 renal = tested on: RXF 393 renal
CCRF-CEM leukemia = tested on: CCRF-CEM leukemia
M14 melanoma = tested on: M14 melanoma
SK-OV-3 ovarian = tested on: SK-OV-3 ovarian
OVCAR-4 ovarian = tested on: OVCAR-4 ovarian
NCI/ADR-RES ovarian = tested on: NCI/ADR-RES ovarian
OVCAR-3 ovarian = tested on: OVCAR-3 ovarian
MDA-MB-435 = tested on: MDA-MB-435
NCI-H23 lung = tested on: NCI-H23 lung
EKVX NSCLC = tested on: EKVX NSCLC
KM12 colon = tested on: KM12 colon
HCT-15 colon = tested on: HCT-15 colon
NCI-H460 lung = tested on: NCI-H460 lung
CAKI-1 renal = tested on: CAKI-1 renal
RPMI-8226 leukemia = tested on: RPMI-8226 leukemia
HS 578T breast = tested on: HS 578T breast
HT29 colon = tested on: HT29 colon
DU-145 prostate = tested on: DU-145 prostate
SK-MEL-2 melanoma = tested on: SK-MEL-2 melanoma
SF-539 CNS = tested on: SF-539 CNS
SF-295 CNS = tested on: SF-295 CNS
SK-MEL-28 melanoma = tested on: SK-MEL-28 melanoma
SK-MEL-5 melanoma = tested on: SK-MEL-5 melanoma
HCT-116 colon = tested on: HCT-116 colon
IGROV1 ovarian = tested on: IGROV1 ovarian
786-0 renal = tested on: 786-0 renal
MALME-3M melanoma = tested on: MALME-3M melanoma
MDA-N = tested on: MDA-N
SNB-75 CNS = tested on: SNB-75 CNS
HL-60(TB) leukemia = tested on: HL-60(TB) leukemia
A498 renal = tested on: A498 renal
A549 NSCLC = tested on: A549 NSCLC
COLO 205 colon = tested on: COLO 205 colon
HOP-62 NSCLC = tested on: HOP-62 NSCLC
ACHN renal = tested on: ACHN renal
OVCAR-8 ovarian = tested on: OVCAR-8 ovarian
K-562 leukemia = tested on: K-562 leukemia
SNB-19 CNS = tested on: SNB-19 CNS
LOX IMVI melanoma = tested on: LOX IMVI melanoma
UACC-62 melanoma = tested on: UACC-62 melanoma
MCF7 breast = tested on: MCF7 breast
PC-3 prostate = tested on: PC-3 prostate
NCI-H522 lung = tested on: NCI-H522 lung
SW-620 colon = tested on: SW-620 colon
SR leukemia = tested on: SR leukemia
UACC-257 melanoma = tested on: UACC-257 melanoma
HCC-2998 colon = tested on: HCC-2998 colon
HOP-92 NSCLC = tested on: HOP-92 NSCLC
NCI-H226 lung = tested on: NCI-H226 lung

Compound: C/C(=N\Nc1nc2ccccc2o1)c1ccc2ccccc2n1
- TGI (T-47D breast): 3.87 µM
- TGI (U251 CNS): 87.2 µM
- TGI (UO-31 renal): 14.4 µM
- TGI (SN12C renal): 56.8 µM
- TGI (BT-549 breast): > 100 µM
- TGI (MOLT-4 leukemia): > 100 µM
- TGI (SF-268 CNS): 49.2 µM
- TGI (TK-10 renal): 68.5 µM
- TGI (MDA-MB-231 breast): > 100 µM
- TGI (OVCAR-5 ovarian): > 100 µM
- TGI (RXF 393 renal): 57.5 µM
- TGI (CCRF-CEM leukemia): 5.77 µM
- TGI (M14 melanoma): > 100 µM
- TGI (SK-OV-3 ovarian): > 100 µM
- TGI (OVCAR-4 ovarian): 5.59 µM
- TGI (NCI/ADR-RES ovarian): 26.5 µM
- TGI (OVCAR-3 ovarian): 3.03 µM
- TGI (MDA-MB-435): > 100 µM
- TGI (NCI-H23 lung): 70.7 µM
- TGI (EKVX NSCLC): 9.23 µM
- TGI (KM12 colon): > 100 µM
- TGI (HCT-15 colon): 59.9 µM
- TGI (NCI-H460 lung): 30.6 µM
- TGI (CAKI-1 renal): 3.93 µM
- TGI (RPMI-8226 leukemia): 6.41 µM
- TGI (HS 578T breast): > 100 µM
- TGI (HT29 colon): 95.9 µM
- TGI (DU-145 prostate): 37.3 µM
- TGI (SK-MEL-2 melanoma): 15.2 µM
- TGI (SF-539 CNS): > 100 µM
- TGI (SF-295 CNS): 56.5 µM
- TGI (SK-MEL-28 melanoma): > 100 µM
- TGI (SK-MEL-5 melanoma): 14.3 µM
- TGI (HCT-116 colon): 20.1 µM
- TGI (IGROV1 ovarian): 5.32 µM
- TGI (786-0 renal): 45.7 µM
- TGI (MALME-3M melanoma): 52.5 µM
- TGI (MDA-N): > 100 µM
- TGI (SNB-75 CNS): 28 µM
- TGI (HL-60(TB) leukemia): 6.47 µM
- TGI (A498 renal): 8.64 µM
- TGI (A549 NSCLC): > 100 µM
- TGI (COLO 205 colon): > 100 µM
- TGI (HOP-62 NSCLC): 58.7 µM
- TGI (ACHN renal): 10.6 µM
- TGI (OVCAR-8 ovarian): 63.5 µM
- TGI (K-562 leukemia): > 100 µM
- TGI (SNB-19 CNS): > 100 µM
- TGI (LOX IMVI melanoma): > 100 µM
- TGI (UACC-62 melanoma): 44.4 µM
- TGI (MCF7 breast): > 100 µM
- TGI (PC-3 prostate): 4.94 µM
- TGI (NCI-H522 lung): 5.83 µM
- TGI (SW-620 colon): > 100 µM
- TGI (SR leukemia): 3.72 µM
- TGI (UACC-257 melanoma): > 100 µM

Compound: CCOC(=O)C(C(=O)OCC)C1C=CCC2c3ccccc3COCC21 (centres undefined)
- TGI (T-47D breast): > 100 µM
- TGI (U251 CNS): > 100 µM
- TGI (UO-31 renal): > 100 µM
- TGI (SN12C renal): > 100 µM
- TGI (BT-549 breast): > 100 µM
- TGI (MOLT-4 leukemia): > 100 µM
- TGI (SF-268 CNS): > 100 µM
- TGI (TK-10 renal): > 100 µM
- TGI (MDA-MB-231 breast): > 100 µM
- TGI (OVCAR-5 ovarian): > 100 µM
- TGI (HCC-2998 colon): > 100 µM
- TGI (RXF 393 renal): > 100 µM
- TGI (HOP-92 NSCLC): > 100 µM
- TGI (CCRF-CEM leukemia): > 100 µM
- TGI (M14 melanoma): > 100 µM
- TGI (SK-OV-3 ovarian): > 100 µM
- TGI (OVCAR-4 ovarian): > 100 µM
- TGI (NCI/ADR-RES ovarian): 96.1 µM
- TGI (OVCAR-3 ovarian): > 100 µM
- TGI (MDA-MB-435): > 100 µM
- TGI (NCI-H23 lung): > 100 µM
- TGI (EKVX NSCLC): > 100 µM
- TGI (KM12 colon): > 100 µM
- TGI (HCT-15 colon): > 100 µM
- TGI (NCI-H460 lung): > 100 µM
- TGI (CAKI-1 renal): > 100 µM
- TGI (RPMI-8226 leukemia): > 100 µM
- TGI (HS 578T breast): > 100 µM
- TGI (HT29 colon): > 100 µM
- TGI (DU-145 prostate): > 100 µM
- TGI (SK-MEL-2 melanoma): > 100 µM
- TGI (SF-539 CNS): > 100 µM
- TGI (SF-295 CNS): > 100 µM
- TGI (SK-MEL-28 melanoma): > 100 µM
- TGI (SK-MEL-5 melanoma): 36 µM
- TGI (HCT-116 colon): > 100 µM
- TGI (IGROV1 ovarian): > 100 µM
- TGI (786-0 renal): > 100 µM
- TGI (MALME-3M melanoma): > 100 µM
- TGI (MDA-N): > 100 µM
- TGI (SNB-75 CNS): > 100 µM
- TGI (HL-60(TB) leukemia): 56.8 µM
- TGI (A498 renal): > 100 µM
- TGI (A549 NSCLC): > 100 µM
- TGI (COLO 205 colon): 48.9 µM
- TGI (HOP-62 NSCLC): > 100 µM
- TGI (ACHN renal): > 100 µM
- TGI (OVCAR-8 ovarian): > 100 µM
- TGI (K-562 leukemia): > 100 µM
- TGI (SNB-19 CNS): > 100 µM
- TGI (LOX IMVI melanoma): > 100 µM
- TGI (UACC-62 melanoma): > 100 µM
- TGI (MCF7 breast): > 100 µM
- TGI (PC-3 prostate): > 100 µM
- TGI (NCI-H522 lung): 71.2 µM
- TGI (SW-620 colon): > 100 µM
- TGI (UACC-257 melanoma): > 100 µM
- TGI (NCI-H226 lung): > 100 µM
